Like-named read-outs stand apart in the source and are kept apart here.
Key:
[1] = system: Vascular Endothelial Growth Factor (VEGF) production by human prostate cancer cell line DU-145; assay: VEGF ELISA, DU-145; assay type: cell-based; conditions: for VEGF (% of DMSO): DMSO = 100%
[2] = system: Vascular Endothelial Growth Factor (VEGF) production by human melanoma cell line RPMI-7951; assay: VEGF ELISA, RPMI-7951; conditions: for VEGF / VEGF ELISA: RPMI-7951; for activity at 5 µM / activity at 20 µM: Homo sapiens, RPMI-7951, 72 h, read-out: VEGF; for VEGF ELISA: DMSO control 3713
Protocol: (§3) RPMI-795 1, MDA-MB-231 and MDA-MB-435 cell lines were cultured in MEM-alpha medium (GIBCO-BRL, Long Island, N.Y.) containing 10% fetal bovine serum (RPMI-7951, MDA-MB-231) or 5% FBS (MDA-MB-435) at 37° C. and under 5% CO2/95% air. […] The cells were cultured in 48 well plates in all of the experiments described.
A VEGF enzyme-linked immunosorbent assay (ELISA) was utilized to determine the effect of the compounds of the present invention on VEGF production of a variety of human cancer cell lines. For the VEGF assay, cells were plated at a concentration of 80,000 cells/well and cultured overnight. Compounds or vehicle (DMSO 0.1%) were then added and the plates were incubated for 72 hours. Supernatant was then collected from each well and frozen in a −80° C. freezer until needed. Cell viability was determined by Neutral Red Assay. VEGF ELISA Kit (R & D, Minneapolis, Minn.) was used to determine the amount of VEGF in the culture supernatants. The ELISA was carried out according to the manufacturer's procedure.

[3] = system: Vascular Endothelial Growth Factor (VEGF) production by human prostate cancer cell line PC-3; assay: VEGF ELISA, PC-3; assay type: cell-based; conditions: for VEGF (% of DMSO): DMSO = 100%
[4] = system: Tissue Factor (TF) production by human melanoma cell line RPMI-7951; assay: TF ELISA, RPMI-7951; assay type: cell-based
Protocol: IMUBIND Tissue Factor ELISA Kit (American Diagnostica Inc, Greenwich, Conn.) was used to determine TF concentration in each sample. The ELISA was carried out according to manufacturer's procedure.

RPMI-7951 human melanoma = assay: Neutral Red Assay, cell viability, RPMI-7951; conditions: for Cell Viability / Neutral Red Uptake, %: RPMI-7951; for Cell Viability: DMSO = 100; for viability at 5 µM / viability at 20 µM: Homo sapiens; for Neutral Red Uptake, %: 72 hours
Protocol: as §3
Neutral Red Assay was utilized to determine the effect of the compounds of the present invention on cell viability. Neutral Red was purchased from GIBCO-BRL (Long Island, N.Y.). Cells were plated at a concentration of 20,000 cells/well and cultured overnight. Compounds or vehicle (DMSO 0.1%) were then added and the plates were incubated for 72 hours. Supernatant from each well was either aspirated or collected and media containing Neutral Red (GIBCO-BRL, Long Island, N.Y.) at a concentration of 15 μl/ml was then added to each well. The plates were then incubated at 37° C. for 30 minutes. Next, the cells were washed with twice with PBS and alcoholic-HCl (0.5N—HCl/35% ethanol) was added to each well. The plates were then placed on a plate shaker until all residues were solubilized (pink color). The solubilized mixtures were then transferred to a 96 well plate and the absorbances were read on a micro-test plate reader at a wavelength of 570 nm.
Cell viability was determined by Neutral Red Assay.

[5] = system: Tissue Factor (TF) production by human prostate cancer cell line DU-145; assay: TF ELISA, DU-145; assay type: cell-based; conditions: 20 μM; for TF (% of DMSO): DMSO = 100%; for TF: mean of triplicate and S.D., DMSO 7699 ± 406
Protocol: (§1) Cells were treated with 1% Triton X-100 in PBS and left overnight at 4° C. overnight to solubilize TF. […] IMUBIND Tissue Factor ELISA Kit (American Diagnostica Inc, Greenwich, Conn.) was used to determine TF concentration in each sample. The ELISA was carried out according to manufacturer's procedure.

[6] = system: Tissue Factor (TF) production by human prostate cancer cell line PC-3; assay: TF ELISA, PC-3; assay type: cell-based; conditions: 20 μM; for TF (% of DMSO): DMSO = 100%; for TF: mean of triplicate and S.D., DMSO 203 ± 6
Protocol: as §1

[7] = system: Human tumor and endothelial cell lines; assay: Emory Laboratory Cell Screen, mean over cell lines; assay type: cell-based; conditions: Mean over the Emory cell lines; 72 hours; read-out: Median Growth Inhibitory Concentration (GI50), Mean
Protocol: (§2) Human tumor and endothelial cell lines were treated for 72 hours with compounds at a minimum of four concentrations between 0.1 μM-40 μM. Neutral Red assay was used to calculate cell viability.

RPMI 7951 = assay: Emory Laboratory Cell Screen, Neutral Red, RPMI 7951; assay type: cell-based, human; conditions: RPMI 7951, Melanoma, 72 hours, read-out: Median Growth Inhibitory Concentration (GI50)
Protocol: as §2

HUVECS = assay: Emory Laboratory Cell Screen, Neutral Red, HUVECS; assay type: cell-based, human; conditions: 72 hours, read-out: Median Growth Inhibitory Concentration (GI50)
Protocol: as §2

[8] = 20 μM, mean of triplicate and S.D., DMSO 18760 ± 2633
[9] = Table 4, 20 μM, mean of triplicate and S.D.
[10] = 20 μM, mean of triplicate and S.D., DMSO 2103 ± 100
[11] = Table 5, 5 μM, DMSO control 7054
[12] = Table 5, 20 μM, DMSO control 7054
[13] = 5 μM, DMSO control 4197 (EF-25: 1045)
[14] = RPMI-7951, 72 h, read-out: Neutral Red Uptake, %
[15] = RPMI-7951, read-out: Cell Viability

SMILES | VEGF (% of DMSO) ([1]; 20 μM) | VEGF [1, 8] | VEGF ([1]; Table 4, 20 μM, DMSO = 100) | VEGF [1, 9] | VEGF ([2]; 20 μM, DMSO = 100) | VEGF (% of DMSO) ([3]; 20 μM) | VEGF [3, 10] | VEGF ([3]; Table 4, 20 μM, DMSO = 100) | VEGF [3, 9] | TF ([4]; 5 μM, DMSO = 100) | TF [4, 11] | Cell Viability (RPMI-7951 human melanoma; 20 μM) | VEGF ELISA ([2]; 5 μM) | VEGF [2, 13] | VEGF ELISA ([2]; 20 μM) | VEGF ([2]; 20 μM, DMSO control 4197) | VEGF ([2]; 5 μM, DMSO = 100) | TF ELISA ([4]; 5 μM, DMSO control 7054) | Neutral Red Uptake, % (RPMI-7951 human melanoma; 5 μM) | Cell Viability (RPMI-7951 human melanoma; 5 μM) | further results
COc1cc(CC2CCCC(Cc3ccc(O)c(OC)c3)C2=O)ccc1O (centres unmarked) [Compound A231U] | (149%) | 27875 ± 4446 pg/mL | 149% | 27875 ± 4446 pg/mL | 34% | (47%) | 984 ± 349 pg/mL | 47% | 984 ± 349 pg/mL | 78% | 5473 pg/mL | 80% | – | – | – | – | – | – | – | – | TF ([4]; 20 μM, DMSO = 100): 85%; TF [4, 12]: 5981 pg/mL
O=C(C=Cc1ccc(O)cc1)C=Cc1ccc(O)cc1 [EF1, 1,5-Bis(4-hydroxyphenyl)penta-1,4-dien-3-one] | (105%) | 19616 ± 4624 pg/mL | 105% | 19616 ± 4624 pg/mL | – | (15%) | 325 ± 75 pg/mL | 15% | 325 ± 75 pg/mL | – | – | – | 1923 pg/ml/well | 2573 pg/mL | 234 pg/ml/well | 0 pg/mL | – | – | – | – | TF (% of DMSO) [5]: (167%); TF [5]: 12879 ± 149 pg/mL; activity at 5 µM [2]: 61%; activity at 20 µM [2]: 0%; TF (% of DMSO) [6]: (53%); TF [6]: 107 ± 9 pg/mL; viability at 5 µM (RPMI-7951 human melanoma; [14]): 92%; viability at 20 µM (RPMI-7951 human melanoma; [14]): 8%; viability at 5 µM (RPMI-7951 human melanoma; [15]): 98%; viability at 20 µM (RPMI-7951 human melanoma; [15]): 43%
O=C(C=Cc1cccc(O)c1)C=Cc1cccc(O)c1 [EF3, 1,5-Bis(3-hydroxyphenyl)penta-1,4-dien-3-one] | (138%) | 25901 ± 620 pg/mL | 149% | 25901 ± 620 pg/mL | – | (44%) | 917 ± 261 pg/mL | 44% | 917 ± 261 pg/mL | – | – | – | 2092 pg/ml/well | 2827 pg/mL | 230 pg/ml/well | 0 pg/mL | – | – | – | – | TF (% of DMSO) [5]: (87%); TF [5]: 6687 ± 188 pg/mL; activity at 5 µM [2]: 67%; activity at 20 µM [2]: 0%; TF (% of DMSO) [6]: (69%); TF [6]: 140 ± 8 pg/mL; viability at 5 µM (RPMI-7951 human melanoma; [14]): 77%; viability at 20 µM (RPMI-7951 human melanoma; [14]): 8%; viability at 5 µM (RPMI-7951 human melanoma; [15]): 88%; viability at 20 µM (RPMI-7951 human melanoma; [15]): 43%
COc1ccc(/C=C/C(=O)/C=C/c2ccc(OC)c(OC)c2)cc1OC [MD6] | (98%) | 18428 ± 3377 pg/mL | 98% | 18428 ± 3377 pg/mL | 1% | (87%) | 1820 ± 283 pg/mL | 87% | 1820 ± 283 pg/mL | 25% | 1753 pg/mL | 42% | 2826 pg/ml/well | 3200 pg/mL | 273 pg/ml/well | 30 pg/mL | 76% | 1753 pg/ml/well | 97 % of control | 101% | GI50 [7]: 2900 nM; TF ([4]; 1 μM, DMSO = 100): 91%; TF ([4]; 1 μM, DMSO control 7054): 6400 pg/mL; GI50 (RPMI 7951): 1900 nM; GI50 (HUVECS): 3800 nM; Neutral Red Uptake, % (RPMI-7951 human melanoma; 20 μM): 6 % of control
COc1cc(C=C2CCCC(=Cc3ccc(O)c(OC)c3)C2=O)ccc1O [MD10] | (42%) | 7830 ± 2262 pg/mL | 42% | 7830 ± 2262 pg/mL | 0% | (29%) | 611 ± 248 pg/mL | 29% | 611 ± 248 pg/mL | 25% | 1793 pg/mL | 42% | 1585 pg/ml/well | 1866 pg/mL | 315 pg/ml/well | 0 pg/mL | 44% | 1793 pg/ml/well | 82 % of control | 91% | TF (% of DMSO) [5]: (76%); TF [5]: 5886 ± 332 pg/mL; GI50 [7]: 8100 nM; TF ([4]; 1 μM, DMSO = 100): 113%; TF ([4]; 1 μM, DMSO control 7054): 7966 pg/mL; GI50 (RPMI 7951): 2200 nM; GI50 (HUVECS): 14000 nM; TF (% of DMSO) [6]: (0%); TF [6]: 0 ± 0 pg/mL; Neutral Red Uptake, % (RPMI-7951 human melanoma; 20 μM): 6 % of control
COc1ccc(CCC(O)CCc2ccc(OC)c(OC)c2)cc1OC [MD279L, 1,5-Bis(3,4-dimethoxyphenyl)penta-3-ol] | – | – | – | – | 0% | – | – | – | – | 82% | 5791 pg/mL | 109% | 2235 pg/ml/well | 904 pg/mL | 1603 pg/ml/well | 0 pg/mL | 22% | 5791 pg/ml/well | 100 % of control | 110% | TF ([4]; 20 μM, DMSO = 100): 83%; TF ELISA ([4]; 20 μM, DMSO control 7054): 5858 pg/ml/well; TF [4, 12]: 5858 pg/mL; Neutral Red Uptake, % (RPMI-7951 human melanoma; 20 μM): 100 % of control
COc1ccc(CCC(=O)CCc2ccc(OC)c(OC)c2)cc1OC [MD279U, 1,5-Bis(3,4-dimethoxyphenyl)penta-3-one] | – | – | – | – | 18% | – | – | – | – | 102% | 7200 pg/mL | 113% | 2511 pg/ml/well | 1197 pg/mL | 779 pg/ml/well | 1179 pg/mL | 28% | 7200 pg/ml/well | 100 % of control | 112% | TF ([4]; 20 μM, DMSO = 100): 75%; TF ELISA ([4]; 20 μM, DMSO control 7054): 5316 pg/ml/well; TF [4, 12]: 5316 pg/mL; Neutral Red Uptake, % (RPMI-7951 human melanoma; 20 μM): 100 % of control
CC(=O)Oc1ccccc1C=CC(=O)C=Cc1ccccc1OC(C)=O [MD286] | – | – | – | – | – | – | – | – | – | – | – | – | – | – | – | – | – | – | – | – | GI50 [7]: 1700 nM; GI50 (RPMI 7951): 1000 nM; GI50 (HUVECS): 2300 nM

— US7371766B2, “Curcumin analogs with anti-tumor and anti-angiogenic properties” (Emory University, priority 1999, dated 2008)
